Results published in the NIST ThermoML archive (doi:10.1021/je100148h).

Test: xn = mol fraction of the nth substance listed
Conditions: Fluid (supercritical or subcritical phases), Burnett expansion method

CCC [propane] + O=C=O
Conditions | mass density [kg/m3]
360.01 K, 5054 kPa, x2 = 0.8017 | 90.4354
360.01 K, 6218.2 kPa, x2 = 0.5158 | 141.203
360.02 K, 178.29 kPa, x2 = 0.8017 | 2.6378
360.02 K, 245.35 kPa, x2 = 0.8017 | 3.6378
360.02 K, 337.31 kPa, x2 = 0.8017 | 5.0167
360.02 K, 463.19 kPa, x2 = 0.8017 | 6.9183
360.02 K, 634.97 kPa, x2 = 0.8017 | 9.5406
360.02 K, 868.69 kPa, x2 = 0.8017 | 13.1566
360.02 K, 3863.5 kPa, x2 = 0.8017 | 65.5911
360.02 K, 6495 kPa, x2 = 0.8017 | 124.684
370 K, 1659.1 kPa, x2 = 0.8017 | 25.0073
370.01 K, 476.31 kPa, x2 = 0.8017 | 6.9151
370.01 K, 653.23 kPa, x2 = 0.8017 | 9.5361
370.01 K, 894.13 kPa, x2 = 0.8017 | 13.1504
370.01 K, 1220.3 kPa, x2 = 0.8017 | 18.1344
370.01 K, 2244.1 kPa, x2 = 0.8017 | 34.4826
370.01 K, 3013.9 kPa, x2 = 0.8017 | 47.5475
370.01 K, 5267 kPa, x2 = 0.8017 | 90.3909
370.02 K, 205.87 kPa, x2 = 0.5158 | 2.9726
370.02 K, 283.04 kPa, x2 = 0.5158 | 4.1011
370.02 K, 346.79 kPa, x2 = 0.8017 | 5.0143
370.02 K, 388.65 kPa, x2 = 0.5158 | 5.6577
370.02 K, 992.19 kPa, x2 = 0.5158 | 14.8545
370.02 K, 1345.8 kPa, x2 = 0.5158 | 20.4921
370.02 K, 1815.3 kPa, x2 = 0.5158 | 28.2684
370.02 K, 2426.9 kPa, x2 = 0.5158 | 38.9941
370.02 K, 3206 kPa, x2 = 0.5158 | 53.7882
370.02 K, 4009.4 kPa, x2 = 0.8017 | 65.5581
370.02 K, 4171 kPa, x2 = 0.5158 | 74.1924
370.02 K, 5317.2 kPa, x2 = 0.5158 | 102.331
370.02 K, 6617 kPa, x2 = 0.5158 | 141.135
370.02 K, 6810.4 kPa, x2 = 0.8017 | 124.62
370.03 K, 532.61 kPa, x2 = 0.5158 | 7.8051
370.03 K, 728.17 kPa, x2 = 0.5158 | 10.7675
380.02 K, 188.21 kPa, x2 = 0.8017 | 2.6354
380.02 K, 259.02 kPa, x2 = 0.8017 | 3.6346
380.02 K, 399.41 kPa, x2 = 0.5158 | 5.6555
380.02 K, 671.46 kPa, x2 = 0.8017 | 9.5319
380.02 K, 919.55 kPa, x2 = 0.8017 | 13.1448
380.02 K, 1255.9 kPa, x2 = 0.8017 | 18.1264
380.02 K, 1386.9 kPa, x2 = 0.5158 | 20.4838
380.02 K, 1709 kPa, x2 = 0.8017 | 24.9958
380.02 K, 1873.6 kPa, x2 = 0.5158 | 28.257
380.02 K, 3114.5 kPa, x2 = 0.8017 | 47.5261
380.02 K, 3326.5 kPa, x2 = 0.5158 | 53.7656
380.02 K, 4154.3 kPa, x2 = 0.8017 | 65.5297
380.02 K, 4347.6 kPa, x2 = 0.5158 | 74.1614
380.02 K, 5478.5 kPa, x2 = 0.8017 | 90.3475
380.02 K, 5579.3 kPa, x2 = 0.5158 | 102.287
380.02 K, 7122.7 kPa, x2 = 0.8017 | 124.564
380.03 K, 356.25 kPa, x2 = 0.8017 | 5.0122
380.03 K, 489.43 kPa, x2 = 0.8017 | 6.9121
380.03 K, 547.58 kPa, x2 = 0.5158 | 7.802
380.03 K, 749.01 kPa, x2 = 0.5158 | 10.7633
380.03 K, 1021.4 kPa, x2 = 0.5158 | 14.8485
380.03 K, 2314.7 kPa, x2 = 0.8017 | 34.4669
380.03 K, 2510.4 kPa, x2 = 0.5158 | 38.978
380.03 K, 7010.3 kPa, x2 = 0.5158 | 141.07
380.04 K, 211.45 kPa, x2 = 0.5158 | 2.9713
380.04 K, 290.81 kPa, x2 = 0.5158 | 4.0993
390.02 K, 2384.9 kPa, x2 = 0.8017 | 34.4507
390.02 K, 3446.3 kPa, x2 = 0.5158 | 53.7433
390.02 K, 5838.5 kPa, x2 = 0.5158 | 102.241
390.03 K, 193.15 kPa, x2 = 0.8017 | 2.6342
390.03 K, 217.06 kPa, x2 = 0.5158 | 2.9702
390.03 K, 265.87 kPa, x2 = 0.8017 | 3.6329
390.03 K, 365.64 kPa, x2 = 0.8017 | 5.0098
390.03 K, 410.13 kPa, x2 = 0.5158 | 5.6532
390.03 K, 502.51 kPa, x2 = 0.8017 | 6.9089
390.03 K, 689.66 kPa, x2 = 0.8017 | 9.5275
390.03 K, 769.82 kPa, x2 = 0.5158 | 10.759
390.03 K, 944.86 kPa, x2 = 0.8017 | 13.1385
390.03 K, 1050.5 kPa, x2 = 0.5158 | 14.8425
390.03 K, 1428 kPa, x2 = 0.5158 | 20.475
390.03 K, 1758.8 kPa, x2 = 0.8017 | 24.9833
390.03 K, 1931.7 kPa, x2 = 0.5158 | 28.245
390.03 K, 2593.4 kPa, x2 = 0.5158 | 38.9614
390.03 K, 3214.7 kPa, x2 = 0.8017 | 47.5025
390.03 K, 4298.5 kPa, x2 = 0.8017 | 65.4967
390.03 K, 4522.9 kPa, x2 = 0.5158 | 74.1282
390.03 K, 5688.3 kPa, x2 = 0.8017 | 90.3013
390.03 K, 7399 kPa, x2 = 0.5158 | 141.004
390.03 K, 7432.4 kPa, x2 = 0.8017 | 124.497
390.04 K, 298.57 kPa, x2 = 0.5158 | 4.0977
390.04 K, 562.52 kPa, x2 = 0.5158 | 7.7989
390.04 K, 1291.3 kPa, x2 = 0.8017 | 18.1174
400.02 K, 970.17 kPa, x2 = 0.8017 | 13.1371
400.03 K, 272.65 kPa, x2 = 0.8017 | 3.6324
400.03 K, 375.15 kPa, x2 = 0.8017 | 5.0093
400.03 K, 515.7 kPa, x2 = 0.8017 | 6.908
400.03 K, 577.33 kPa, x2 = 0.5158 | 7.7944
400.03 K, 707.92 kPa, x2 = 0.8017 | 9.5262
400.03 K, 790.53 kPa, x2 = 0.5158 | 10.7528
400.03 K, 1079.5 kPa, x2 = 0.5158 | 14.8335
400.03 K, 1326.5 kPa, x2 = 0.8017 | 18.1154
400.03 K, 1468.7 kPa, x2 = 0.5158 | 20.4633
400.03 K, 1808.4 kPa, x2 = 0.8017 | 24.9801
400.03 K, 2454.9 kPa, x2 = 0.8017 | 34.4454
400.03 K, 3565.3 kPa, x2 = 0.5158 | 53.7096
400.03 K, 6095.5 kPa, x2 = 0.5158 | 102.176
400.03 K, 7739.4 kPa, x2 = 0.8017 | 124.476
400.03 K, 7784.2 kPa, x2 = 0.5158 | 140.912
400.04 K, 198.07 kPa, x2 = 0.8017 | 2.6338
400.04 K, 222.65 kPa, x2 = 0.5158 | 2.9684
400.04 K, 306.29 kPa, x2 = 0.5158 | 4.0953
400.04 K, 420.82 kPa, x2 = 0.5158 | 5.6498
400.04 K, 1989.5 kPa, x2 = 0.5158 | 28.2277
400.04 K, 2676 kPa, x2 = 0.5158 | 38.9372
400.04 K, 3314.3 kPa, x2 = 0.8017 | 47.4952
400.04 K, 4441.8 kPa, x2 = 0.8017 | 65.4859
400.04 K, 4696.7 kPa, x2 = 0.5158 | 74.0811
400.04 K, 5896.6 kPa, x2 = 0.8017 | 90.2853
